In patent publication US20050267067A1, “Radical reaction inhibitors, method for inhibition of radical reactions, and use thereof” (priority 2002, published 2005):

What was measured:
[1] = Preservation of powdery vitamin E preparations at 60° C., GC; type: physicochemical; settings: for Amount of vitamin E: per one gram of vitamin E preparation
Experimental: Vitamin E (α-tocopherol) commercialized by Wako Pure Chemical Industries Ltd., Tokyo, Japan, was dissolved in ethanol (a special grade reagent, commercialized by Katayama Chemical Industries Co., Ltd., Osaka, Japan) to make into an ethanol solution with a vitamin E content of 10%. Ten grams of the powdery anhydrous cyclotetrasaccharide, prepared in Example 3, were placed in a glass mortar and then a small amount of […] was added to the cyclotetrasaccharide. Using a glass rod, the mixture was repeatedly mixed with additional ethanol or acetic acid until the mixture could not keep its powdery form. Thus, a vitamin E preparation was obtained. As controls, vitamin E preparations were prepared by using “ISOELITE P™”, a powdery branched cyclodextrin commercialized by Ensuiko Sugar Refining Co., Ltd., Tokyo, Japan, a powdery anhydrous crystalline α,α-trehalose prepared according to the method disclosed in Japanese Patent Kokai No. 213,283/95, “PINEFIBER™”, a powdery dextrin product commercialized by Matsutani Chemical Industries Co., Ltd., Hyogo, Japan, or a soluble starch commercialized by Katayama Chemical Industries Co., Ltd., Osaka, Japan, except for using cyclotetrasaccharide by the same procedure. Successively, each powdery vitamin E preparation was dried under a reduced pressure by keeping the preparation at ambient temperature for five hours in a desiccators containing (P2O5) to evaporate ethanol. About 0.5 gram each of the five powdery vitamin E preparations containing any one of those saccharides was weighted and placed in 20 ml-glass vials and sealed. […] The amount of vitamin E in each sample was determined by: adding 10 ml of ethanol to each of the vials containing the test samples; extracting vitamin E by shaking the resulting suspensions; centrifuging the suspensions at 10,000 rpm for 10 minutes; and measuring the amount of vitamin E in the resulting supernatants by gas-chromatography (GC). GC was carried out using “GC-14A”, a GL apparatus produced by Shimadzu Corporation, Kyoto, Japan, installed with “DB-1”, a column (internal diameter: 0.25 mm, length: 30 m) commercialized by Agilent Technologies, USA (former name; J & W Scientific, USA). The amount of vitamin E (mg) per one gram of a vitamin E preparation and the residual vitamin E (%) was calculated and expressed with a relative value, when the amount of vitamin E in each test sample just after its preparation was regarded as 100%, as shown in Table 11.

calf serum albumin (BSA) = test: Modification of BSA by lipid peroxides (protein carbonyl, OLAARPs); type: biochemical; settings: for OLAARPs Formation: (%) / Protein carbonyl Formation: (%): BSA, versus no saccharide; for Formed OLAARPs / Formed Protein carbonyl: 37° C., 24 hours
Experimental: (§1) In this experiment, saccharide solutions were prepared to give an equal total saccharide molar concentration in each solution.
(§2) As a negative control, PBS was used.
(§3) To five milliliters of either of the above saccharide solutions for testing or the negative control was added 10 mg of calf serum albumin (BSA) or L-lysine, followed by dissolving. To each of the resulting solutions was added 25 μg of 2,4-decadienal or malondialdehyde (MDA) as a lipid peroxide, followed by reaction at 37° C. for 24 hours. After completion of the reaction, protein carbonyl and reaction products of oxidized lipids/aminoacids (OLAARPs) formed as aldehyde adducts were quantified on the calorimetric method. […] The formation levels of protein carbonyl and OLAARPs were determined based on the absorbances obtained in this experiment, in terms of the molar absorbance coefficient for each molecule as disclosed in Biochim. Biophys.
(§4) To each of the resulting mixtures was added 600 μl of 30% trichloroacetic acid, and the mixture was allowed to stand at 0° C. for one hour and centrifuged at 10,000 rpm for 15 min to obtain a precipitate, followed by washing the resulting precipitate four times with two milliliters of ethanol/ethylacetate (1:1), respectively, adding 1.5 ml of 6M-guanidine hydrochloride/20 mM-NaPi/TFA (pH 2.3) to the resultant, allowing the mixture to stand at 37° C. for 30 min, and measuring the absorbance of the resulting mixture at a wavelength of 580 nm, ε=35,000 M^−1 cm^−1.

[2] = Modification of L-lysine by lipid peroxides (protein carbonyl, OLAARPs); settings: for OLAARPs Formation: (%) / Protein carbonyl Formation: (%): L-lysine, versus no saccharide; for Formed OLAARPs / Formed Protein carbonyl: 37° C., 24 hours
Experimental: as §1, §2
as §3, with “Biophys. Acta, No. 1,258, pp. 319-327 (1985).” for “Biophys.”
as §4, with “cm^−1. […] To any one of the resulting mixtures was added two milliliters of a 12.5 mM DNPH/2.5 N-hydrochloride solution, and the resulting mixture was allowed to stand at 45° C. for 30 min, followed by measuring the absorbance of the resulting mixture at a wavelength of 580 nm, E=35,000 M^−1 cm^−1.” for “cm^−1.”

[3] = 2,4-decadienal, listed as cyclotetrasaccharide
[4] = MDA, listed as cyclotetrasaccharide
[5] = added lipid peroxide 2,4-decadienal
[6] = added lipid peroxide malondialdehyde (MDA)

| Structure (SMILES) | Residual vitamin E (%) ([1]; 0 days (regarded as 100%)) | Residual vitamin E (%) ([1]; 1 day at 60° C.) | Residual vitamin E (%) ([1]; 3 days at 60° C.) | Residual vitamin E (%) ([1]; 7 days at 60° C.) | Residual vitamin E (%) ([1]; 14 days at 60° C.) | Amount of vitamin E ([1]; 0 days at 60° C.) [mg] | Amount of vitamin E ([1]; 1 day at 60° C.) [mg] | Amount of vitamin E ([1]; 3 days at 60° C.) [mg] | Amount of vitamin E ([1]; 7 days at 60° C.) [mg] | Amount of vitamin E ([1]; 14 days at 60° C.) [mg] | OLAARPs Formation: (%) (calf serum albumin (BSA); 2,4-decadienal) | Protein carbonyl Formation: (%) (calf serum albumin (BSA); 2,4-decadienal) | OLAARPs Formation: (%) (calf serum albumin (BSA); MDA) | Protein carbonyl Formation: (%) (calf serum albumin (BSA); MDA) | Formed OLAARPs (calf serum albumin (BSA); [5]) [μmol/g-BSA] | Formed Protein carbonyl (calf serum albumin (BSA); [5]) [μmol/g-BSA] | Formed OLAARPs (calf serum albumin (BSA); [6]) [μmol/g-BSA] | Formed Protein carbonyl (calf serum albumin (BSA); [6]) [μmol/g-BSA] | OLAARPs Formation: (%) ([2]; 2,4-decadienal) | Protein carbonyl Formation: (%) ([2]; 2,4-decadienal) | other results |
| --- | --- | --- | --- | --- | --- | --- | --- | --- | --- | --- | --- | --- | --- | --- | --- | --- | --- | --- | --- | --- | --- |
| OCC1OC2OCC3O[C@H](O[C@H]4C(O)C(CO)OC(OCC5O[C@H](O[C@@H](C1O)C2O)C(O)C(O)[C@@H]5O)C4O)C(O)C(O)[C@@H]3O (stereo partly drawn) [Cyclotetrasaccharide, cyclo{→6}-α-D-glucopyranosyl-(1→3)-α-D-glucopyranosyl-(1→6)-α-D-glucopyranosyl-(1→3)-α-D-glucopyranosyl-(1→}] | (100) % | (98) % | (95) % | (90) % | (61) % | 75.9 | 74.4 | 72.0 | 68.5 | 46.3 | (69) % | (45) % | (80) % | (45) % | 2.92 | 6.34 | 4.68 | 1.09 | (67) % | (48) % | OLAARPs Formation: (%) (calf serum albumin (BSA); [3]): about 69%; Protein carbonyl Formation: (%) (calf serum albumin (BSA); [3]): about 45%; OLAARPs Formation: (%) (calf serum albumin (BSA); [4]): about 80%; Protein carbonyl Formation: (%) (calf serum albumin (BSA); [4]): about 45%; OLAARPs Formation: (%) [2, 3]: about 67%; Protein carbonyl Formation: (%) [2, 3]: about 48%; OLAARPs Formation: (%) ([2]; MDA): (39) %; Protein carbonyl Formation: (%) ([2]; MDA): (66) %; OLAARPs Formation: (%) [2, 4]: about 39%; Protein carbonyl Formation: (%) [2, 4]: about 66%; Formed OLAARPs [2, 5]: 5.44 μmol/g-L-lysine; Formed Protein carbonyl [2, 5]: 6.42 μmol/g-L-lysine; Formed OLAARPs [2, 6]: 3.39 μmol/g-L-lysine; Formed Protein carbonyl [2, 6]: 3.93 μmol/g-L-lysine |
| OC[C@H]1O[C@H](O[C@H]2O[C@H](CO)[C@@H](O)[C@H](O)[C@H]2O)[C@H](O)[C@@H](O)[C@@H]1O [α, α-Trehalose, α, α-trehalose, reference compound] | (100) % | (99) % | (85) % | (73) % | (41) % | 36.7 | 36.2 | 31.0 | 26.6 | 15.1 | (63) % | (58) % | (56) % | (60) % | 2.67 | 8.26 | 3.24 | 1.45 | (70) % | (55) % | OLAARPs Formation: (%) ([2]; MDA): (38) %; Protein carbonyl Formation: (%) ([2]; MDA): (67) %; Formed OLAARPs [2, 5]: 5.72 μmol/g-L-lysine; Formed Protein carbonyl [2, 5]: 7.47 μmol/g-L-lysine; Formed OLAARPs [2, 6]: 3.24 μmol/g-L-lysine; Formed Protein carbonyl [2, 6]: 3.99 μmol/g-L-lysine |
